Assay results as given in US7709482B2, “Polycyclic heteroaryl substituted triazoles useful as Axl inhibitors” (Rigel Pharmaceuticals, Inc., priority 2006, dated 2010).

biological target: T1, Axl (Homo sapiens, UniProt P30530); experiment: Phospho-Akt In-Cell Western Assay (inhibition of Axl activity after Axl-antibody cross-linking); type: cell-based; conditions: Hela cells, phospho-Akt chemiluminescence normalized to relative cell number; compounds of formula (Ib), Table 2; read-out: IC50
T1 construct: endogenous in cells; host or cells: HeLa cells
T1 sequence (P30530 26-894): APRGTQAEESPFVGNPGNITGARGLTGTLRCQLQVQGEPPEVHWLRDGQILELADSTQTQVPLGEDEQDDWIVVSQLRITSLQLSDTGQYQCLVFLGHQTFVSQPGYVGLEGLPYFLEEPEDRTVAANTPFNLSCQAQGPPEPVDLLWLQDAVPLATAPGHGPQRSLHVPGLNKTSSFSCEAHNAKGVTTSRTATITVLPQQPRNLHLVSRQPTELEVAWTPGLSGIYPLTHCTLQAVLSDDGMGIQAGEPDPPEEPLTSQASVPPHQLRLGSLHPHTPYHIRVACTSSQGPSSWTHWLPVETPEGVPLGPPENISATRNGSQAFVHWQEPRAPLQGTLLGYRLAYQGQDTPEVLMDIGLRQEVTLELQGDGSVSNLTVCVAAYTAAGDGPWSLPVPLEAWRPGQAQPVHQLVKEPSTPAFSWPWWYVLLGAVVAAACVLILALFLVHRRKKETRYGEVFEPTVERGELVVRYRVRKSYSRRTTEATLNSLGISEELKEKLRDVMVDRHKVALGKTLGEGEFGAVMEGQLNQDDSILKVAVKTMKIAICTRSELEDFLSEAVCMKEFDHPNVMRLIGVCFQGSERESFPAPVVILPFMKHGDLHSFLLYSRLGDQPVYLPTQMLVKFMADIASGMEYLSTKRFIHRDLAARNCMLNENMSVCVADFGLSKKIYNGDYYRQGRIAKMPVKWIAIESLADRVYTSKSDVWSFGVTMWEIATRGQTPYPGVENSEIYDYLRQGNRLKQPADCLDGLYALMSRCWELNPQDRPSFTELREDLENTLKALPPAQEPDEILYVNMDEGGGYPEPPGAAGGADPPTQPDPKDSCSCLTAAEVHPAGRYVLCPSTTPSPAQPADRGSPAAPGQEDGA
Summary of the method: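 Phospho-Akt was detected in formaldehyde-fixed cells by in-cell immunostaining with HRP chemiluminescence. Before fixation, HeLa cells kept 24 h in low-serum medium containing 500 ng/mL Axl/Fc received compound for 1 h at 37 °C, followed by 5-min Axl activation through antibody clustering.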

Structure (SMILES) | IC50 [nM]
CN1CCN(c2ccc(Nc3nc(N)nn3-c3cc4c(nn3)-c3ccccc3CCC4)cc2F)CC1 [Compound 242, 1-(6,7-dihydro-5H-benzo[6,7]cyclohepta[1,2-c]pyridazin-3-yl)-N^5-(3-fluoro-4-(4-methylpiperazin-1-yl)phenyl)-1H-1,2,4-triazole-3,5-diamine] | 1000 to 10000
Nc1nc(Nc2ccc3c(c2)CNCC3)n(-c2cc3c(nn2)-c2ccccc2CCC3)n1 [Compound 243, 1-(6,7-dihydro-5H-benzo[6,7]cyclohepta[1,2-c]pyridazin-3-yl)-N^5-(1,2,3,4-tetrahydroisoquinolin-7-yl)-1H-1,2,4-triazole-3,5-diamine] | 1000 to 10000
Nc1nc(Nc2ccc(N3CCN(CC4CC4)CC3)c(F)c2)n(-c2cc3c(nn2)-c2ccccc2CCC3)n1 [Compound 244, 1-(6,7-dihydro-5H-benzo[6,7]cyclohepta[1,2-c]pyridazin-3-yl)-N^5-(3-fluoro-4-(4-cyclopropylmethylpiperazin-1-yl)phenyl)-1H-1,2,4-triazole-3,5-diamine] | < 1000
CN1CCC(N2CCc3ccc(Nc4nc(N)nn4-c4cc5c(nn4)-c4ccccc4CCC5)cc3C2)CC1 [Compound 245, 1-(6,7-dihydro-5H-benzo[6,7]cyclohepta[1,2-c]pyridazin-3-yl)-N^5-(2-(1-methylpiperidin-4-yl)-1,2,3,4-tetrahydroisoquinolin-7-yl)-1H-1,2,4-triazole-3,5-diamine] | 1000 to 10000
Nc1nc(Nc2cnc3c(c2)CC2(CCC3)OCCO2)n(-c2cc3c(nn2)-c2ccccc2CCC3)n1 [Compound 248, 1-(6,7-dihydro-5H-benzo[6,7]cyclohepta[1,2-c]pyridazin-3-yl)-N^5-(5,7,8,9-tetrahydrospiro[cyclohepta[b]pyridine-6,2′[1,3]dioxolane]-3-yl)-1H-1,2,4-triazole-3,5-diamine] | > 20000
Nc1nc(Nc2ccc3c(c2)CC[C@@H](N2CCCC2)CC3)n(-c2cc3c(nn2)-c2ccccc2CCC3)n1 [Compound 249, 1-(6,7-dihydro-5H-benzo[6,7]cyclohepta[1,2-c]pyridazin-3-yl)-N^5-(7-(S)-pyrrolidin-1-yl-6,7,8,9-tetrahydro-5H-benzo[7]annulene-2-yl)-1H-1,2,4-triazole-3,5-diamine] | < 1000

same assay, conditions: inhibition of Axl activity; Table 1, compounds of formula (Ia); read-out: IC50

Structure (SMILES) | IC50 [nM]
Cc1csc2c(-n3nc(Nc4cnc5c(c4)CCC4(CC5)OCCO4)nc3N)nc(Cl)nc12 [Compound 241, 1-(2-chloro-7-methylthieno[3,2-d]pyrimidin-4-yl)-N^3-(5,6,8,9-tetrahydrospiro[cyclohepta[b]pyridine-7,2′-[1,3]dioxolane]-3-yl)-1H-1,2,4-triazole-3,5-diamine] | < 1000
Cc1csc2c(-n3nc(Nc4cnc5c(c4)CCC4(CCC5)OCC(C)(C)CO4)nc3N)nc(Cl)nc12 [Compound 246, 1-(2-chloro-7-methylthieno[3,2-d]pyrimidin-4-yl)-N^3-(5′,5′-dimethyl-6,8,9,10-tetrahydro-5H-spiro[cycloocta[b]pyridine-7,2′-[1,3]dioxane]-3-yl)-1H-1,2,4-triazole-3,5-diamine] | < 1000
CC1(C)COC2(CCCc3ncc(Nc4nc(N)n(-c5cc6c(nn5)-c5ccccc5CCC6)n4)cc3CC2)OC1 [Compound 247, 1-(6,7-dihydro-5H-benzo[6,7]cyclohepta[1,2-c]pyridazin-3-yl)-N^3-(5′,5′-dimethyl-6,8,9,10-tetrahydro-5H-spiro[cycloocta[b]pyridine-7,2′-[1,3]dioxane]-3-yl)-1H-1,2,4-triazole-3,5-diamine] | > 20000
